For series [1], the system named is DNA sequence 5′-CGCATATATGCG-3′. The experiment in a line: Native mass spectrometry of DNA binding stoichiometry. The note with it: 9 μM DNA, 100 μM S-MGB, 150 mM ammonium acetate. How it is done:
DNA sample preparation: The DNA oligonucleotide sequence 5′-[…]-3′ was purchased in lyophilised form from Alpha DNA, Montreal, Canada, and used without further purification; its purity was assessed via NMR. We prepared 100 μM stock solutions of DNA with 150 mM ammonium acetate buffer solution (Fisher Scientific, Loughborough, Leicestershire, UK) and 2 mM potassium chloride solution (Fisher Scientific, Loughborough, Leicestershire, UK). This solution was annealed at 90 degrees for 10 min and allowed to cool to room temperature. A total of 10 mM S-MGB stock in 100% DMSO (Sigma-Aldrich, St. Louis, MO, USA) was diluted to a 1 mM S-MGB solution with 150 mM ammonium acetate. The final samples were prepared from this solution to yield final concentrations of 9 μM DNA, 100 μM KCl, 100 μM S-MGB and 1% DMSO. DNA solutions containing no S-MGB included 1% DMSO and were used as controls.
Mass spectrometry measurements: Native mass spectrometry experiments were carried out using a Synapt G2Si instrument (Waters, Manchester, UK) with a nanoelectrospray ionisation source (nESI). Mass calibration was performed using a separate infusion of NaI cluster ions. […]

For a further series, the system named is genomic DNA from salmon. The experiment in a line: UV-Vis DNA thermal melting, genomic DNA. It is filed as binding. The note with it: 10 µM S-MGB, 0.02 mg/mL salmon gDNA. The protocol: Salmon DNA (D1626, Sigma-Aldrich) at 1 mg/mL in 1 mM phosphate buffer (pH 7.4) containing 0.27 mM KCl and 13.7 mM NaCl (P4417, Sigma-Aldrich) was annealed at 90 °C for 10 min. MGB-BP-3 at 10 mM in DMSO was diluted with the same phosphate buffer, and combined with the salmon DNA stock, to yield a single sample with 10 µM S-MGB and 0.02 mg/mL gDNA in 1 mM phosphate buffer containing 0.27 mM KCl and 13.7 mM NaCl. Control samples containing only MGB-BP-3 or gDNA were prepared, respectively. The samples were melted at a rate of 0.5 °C/min from 45 °C to 90 °C, with spectra recorded at 260 nm on a UV-1900 UV-vis spectrophotometer fitted with a Peltier temperature controller (Shimadzhu, Kyoto, Japan), using LabSolutions (Tm Analysis) software. The melting temperatures (Tms) of the MGB-BP-3:DNA complexes were determined by fitting a sigmoidal function using a Boltzmann distribution in OriginPro. Two independent experiments were carried out and the values quoted with an error no worse than ±0.5 °C.

In another series the test system is S. aureus ATCC 43300. The experiment in a line: Antibacterial assay (MIC, broth dilution). Conditions: Staphylococcus aureus, read-out: S. aureus MIC. It is filed as cell-based. The protocol:
The inhibition of bacterial growth was determined by OD600, using a Tecan Infinite M Nano plate reader. The percentage of growth inhibition was calculated for each well, using the negative control (medium only) and positive control (bacteria without inhibitors) on the same plate. […] Each MIC determination was carried out in triplicate, on separate days.
Background: Dilution methods test growth across graded concentrations, often in twofold steps.

For the next series, the system named is d(5′-CGCATATATGCG-3′). The experiment in a line: UV-Vis DNA thermal melting, short DNA oligo. It is filed as binding. Conditions: 2 MGB: 1 DNA, 10 mM PBS pH 7.4, 50 mM NaCl. The protocol: The DNA oligonucleotide sequence 5′-[…]-3′ was purchased in lyophilised form from Alpha DNA, Canada, and used without further purification, with purity assessed via NMR. The DNA oligomer was melted at a rate of 0.5 °C/min in 10 mM PBS buffer solution (pH 7.4) with 50 mM NaCl on a Cary 300 BIO UV–visible spectrophotometer fitted with a Peltier temperature controller. The programs were set and the data were processed using Cary WinUV software. The duplex oligomer was made to a concentration of 6 × 10^−6 M, heated to 90 °C and allowed to cool to room temperature unaided. This was mixed with sufficient S-MGB to give the appropriate ratio of 2 MGB: 1 DNA. For the reference melting temperature, no S-MGB was added. Samples were heated from 10 °C to 90 °C and cooled from 90 °C to 10 °C, with the spectra being recorded at 260 nm during both of these cycles. The melting temperatures (Tm) of the duplex oligomers were determined by fitting a sigmoidal function using a Boltzmann distribution in OriginPro.

For series [2], the system named is bloodstream form T. b. brucei (Lister 427). On the set-up: method as in PMID 34447938. The note with it: data previously reported ref 19; cited from earlier work.
Series [3] has as its system L. donovani LV82 luc1 (MHOM/ET/67:LV82). The experiment in a line: Anti-Leishmania assay, intracellular amastigotes in bone marrow-derived macrophages, luciferase readout. It is filed as cell-based. Conditions: read-out: L. donovani IC50. How it is done: The compounds were screened in vitro for their antileishmanial activity against the intracellular amastigote stage. Briefly, bone marrow-derived macrophages (0.5 × 10^5 cells per well) were infected using a 20:1 host cell: parasite ratio with luciferase-expressing L. donovani LV82 luc1 (MHOM/ET/67:LV82). […] Amphotericin B solution was used as a positive control and was used at a starting concentration of 1 μM. The medium was removed from each sample at 72 h post-infection and replaced with 150 μL luciferin solution (150 μg mL^−1 luciferin in serum-free medium). The amount of bioluminescent signal emitted/well was determined and used to calculate the mean suppression in the bioluminescent signal for each test sample compared to the mean control values. The EC50 values were calculated and the mean EC50 was calculated from the three separate experiments.

For series [4], the target named is T1, hERG ion channel (Homo sapiens, UniProt Q12809).
T1 construct: expressed in transfected cells; host or cells: HEK293 cells (gift of Dr. J. Mitcheson, University of Leicester)
Details: method as in PMID 22948178. Conditions: compounds at 10 μM; data previously reported ref 20; cited from earlier work.

Series [5] has as its system bloodstream form T. b. brucei (Lister 427). The experiment in a line: Anti-Trypanosoma alamarBlue assay. Format: cell-based. The protocol: The bloodstream form T. b. brucei (Lister 427) was cultured in HMI-11 medium (Gibco) supplemented with 10% heat-inactivated FBS (Gibco), at 37 °C in a humidified 5% CO2 environment.
The EC50 values were determined using the in vitro alamarBlue assay. T. b. brucei parasites (2 × 10^4 cells per mL), were seeded into serial dilutions of the test compounds to a final volume of 200 μL and incubated for 48 h, after which 20 μL of 0.49 mM resazurin dye (Sigma-Aldrich, St. Louis, MO, USA) was added and the cells were incubated for a further 24 h. The reduction of resazurin was measured using a fluorimeter (FLUOstar Optima, BMG Labtech, Ortenberg, Germany) at 544 nm excitation and 590 nm emission wavelengths. The EC50 values were determined using Prism 5 software (GraphPad, San Diego, CA, USA). All experiments were carried out on at least three independent occasions.

In series [6] the target is T1, hERG ion channel. Description: hERG cell-binding assay, [3H]-astemizole displacement in hERG-transfected HEK293 cells. Conditions: compounds at 10 μM. How it is done: hERG-transfected HEK293 cells were kindly gifted by Dr. J. Mitcheson, University of Leicester. The cell cultures were maintained in Gibco Dulbecco’s Modified Eagle Medium (D-MEM) + GlutaMAX1^TM medium supplemented with 10% foetal bovine serum ([…]), 1% penicillin–streptomycin and 0.8% Geneticin in a Sanyo humidified incubator (37 °C, 5% CO2). Once at 80–90% confluency, the cells were lifted using a PBS-based, enzyme-free Cell Dissociation Buffer. The cell suspension was counted using a Bright Line Haemocytometer and centrifuged at 1000 rpm for 5 min, and the supernatant discarded. The pellet was resuspended in ice-cold Tris-HCl, pH 7.4 (20 mM), with 1% phenylmethylsulfonyl fluoride (PMSF). […]
[^3H]-Astemizole binding in hERG-transfected HEK293 cells was performed in a […] total volume according to the following conditions: cells (~200,000 cells per assay tube, […]), [^3H]- astemizole (0.5 nM, […]), incubation buffer (10 mM HEPES, pH 7.4, 130 mM NaCl, 5 mM KCl, 0.8 mM MgCl2, 10 mM glucose, 0.1% BSA, 100 mL) for the total binding or drug compound ([…], 100 mL) for the single-point assay. Non-specific binding was determined using nonradiolabelled astemizole ([…], 100 mL). […] The radioactivity retained on the filters (pre-soaked in 0.5% PEI) was measured via counting in scintillation fluid (4 mL, Tri-Carb 1500 Packard; Emulsifier-Safe).
(hERG is a cardiac potassium channel; its block is linked to QT prolongation.)

Setting [7] is: LUC1, intracellular amastigotes, 72 h post-infection, mean of 3 experiments.

Each structure is given as a SMILES string. In brackets after ≈: the same amount, converted by molar mass. Like-named read-outs stand apart in the source and are kept apart here. Marks after values point to notes of the source that are not given here.

T1 sequence (Q12809 whole entry): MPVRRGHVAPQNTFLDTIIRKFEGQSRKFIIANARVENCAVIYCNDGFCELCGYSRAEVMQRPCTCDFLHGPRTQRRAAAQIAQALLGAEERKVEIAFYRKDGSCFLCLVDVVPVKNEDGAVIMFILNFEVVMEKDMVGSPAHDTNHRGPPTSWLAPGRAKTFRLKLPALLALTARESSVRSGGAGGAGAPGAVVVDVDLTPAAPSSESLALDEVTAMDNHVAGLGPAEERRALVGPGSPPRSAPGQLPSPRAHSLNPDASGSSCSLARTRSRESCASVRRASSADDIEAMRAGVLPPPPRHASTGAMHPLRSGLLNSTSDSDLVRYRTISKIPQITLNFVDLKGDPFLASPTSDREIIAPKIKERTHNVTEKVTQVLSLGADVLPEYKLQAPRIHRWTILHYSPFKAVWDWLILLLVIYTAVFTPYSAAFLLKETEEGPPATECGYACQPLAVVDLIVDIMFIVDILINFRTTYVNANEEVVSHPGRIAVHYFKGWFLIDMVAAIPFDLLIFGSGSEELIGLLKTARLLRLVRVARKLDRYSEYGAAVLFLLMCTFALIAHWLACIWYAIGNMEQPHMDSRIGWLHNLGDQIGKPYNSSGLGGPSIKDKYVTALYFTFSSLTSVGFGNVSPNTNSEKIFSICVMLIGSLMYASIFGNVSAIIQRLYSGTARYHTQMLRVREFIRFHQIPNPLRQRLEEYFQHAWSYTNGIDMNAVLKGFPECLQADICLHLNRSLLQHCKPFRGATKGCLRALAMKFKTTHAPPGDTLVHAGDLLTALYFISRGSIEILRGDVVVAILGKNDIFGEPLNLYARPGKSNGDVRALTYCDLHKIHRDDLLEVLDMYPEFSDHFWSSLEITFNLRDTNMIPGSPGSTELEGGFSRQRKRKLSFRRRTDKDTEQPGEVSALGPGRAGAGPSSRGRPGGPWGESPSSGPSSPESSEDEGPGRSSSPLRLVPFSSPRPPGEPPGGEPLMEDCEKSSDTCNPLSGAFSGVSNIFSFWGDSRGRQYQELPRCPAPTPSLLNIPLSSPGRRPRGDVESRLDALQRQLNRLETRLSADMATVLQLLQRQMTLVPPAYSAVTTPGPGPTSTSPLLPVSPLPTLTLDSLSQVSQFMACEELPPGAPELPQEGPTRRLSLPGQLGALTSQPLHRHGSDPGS

On to `Cn1cc(NC(=O)c2cc(NC(=O)c3ccc(/C=C/c4cnc5ccccc5c4)cc3)cn2C)cc1C(=O)NCCN1CCOCC1` [S-MGB-3, 1-methyl-N-[1-methyl-5-({[2-(4-morpholinyl)ethyl]amino}carbonyl)-1H-pyrrol-3-yl]-4-({4-[(E)-2-(3-quinolinyl)ethenyl]benzoyl}amino)-1H-pyrrole-2-carboxamide], for which the “binding stoichiometry to double-stranded DNA by nMS” value in series [1] was “selectively bind to double-stranded DNA as a dimer only”; in series [1] (listed as S-MGB-BP-3), “bind 2xS-MGB molecules”. Moreover, the Tm increase in the series with genomic DNA from salmon stood at 12.6 °C. In addition, the “Melting Temperature of gDNA + S-MGB complex” value in the series on genomic DNA from salmon (gDNA alone 69.6 ± 0.3) turned out to be 82.2 ± 0.1 °C.

Regarding `N=C(N)c1ccc(OCCCCCOc2ccc(C(=N)N)cc2)cc1` [compound 1], the minimal inhibitory concentration (MIC) (commonly the lowest concentration that inhibits growth of the organism) with S. aureus ATCC 43300 (ATCC43300, 18 h, 37 °C) stood at 50 µM (≈ 17 µg/mL). Also, in the series with d(5′-CGCATATATGCG-3′), the “ΔTm, DNA melting temperature increase” value came to 11 °C. In addition, the “T. b. brucei MIC” value in series [2] was 0.78 * μM. Further, the half-inhibitory concentration (IC50) (as a rule, the concentration at which inhibition is half-maximal) in series [3] (setting [7]) is 3.5 ± 0.1 µM.

`N=C(N)c1ccc(-c2cc3ccc(C(=N)N)cc3[nH]2)cc1` [compound 2]: the minimum inhibitory concentration (MIC) in the series on S. aureus ATCC 43300 (ATCC43300, 18 h, 37 °C) was 3.12 µM (≈ 0.865 µg/mL). Besides, the “ΔTm, DNA melting temperature increase” value in the series on d(5′-CGCATATATGCG-3′) was determined as 15 °C. Further, the “T. b. brucei MIC” value in [2] is reported as 1.56 * μM. Also, the “hERG % displacement of [3H]-astemizole” value on hERG ion channel [4] is reported as 58 ** %. The IC50 in series [3] (setting [7]) was 5.7 ± 0.4 µM.

`Cn1cc(NC(=O)c2cc(NC(=O)c3cc(NC=O)cn3C)cn2C)cc1C(=O)NCCC(=N)N` [compound 3]: the MIC with S. aureus ATCC 43300 (ATCC43300, 18 h) was found to be 0.78 µM (≈ 0.376 µg/mL). The “ΔTm, DNA melting temperature increase” value in the series on d(5′-CGCATATATGCG-3′) was determined as 17 °C. Moreover, in series [2], the “T. b. brucei MIC” value is <0.19 * μM. Also, the “hERG % displacement of [3H]-astemizole” value at hERG ion channel [4] is given as 64 ** %. Moreover, in series [3] (LUC1, 72 h), the half-maximal inhibitory concentration (IC50) was found to be 5.1 ± 0.7 µM.

In the case of `COc1cccc(/C=C/c2ccc(C(=O)Nc3cc(C(=O)Nc4cc(C(=O)NCC[N+]5([O-])CCOCC5)n(C)c4)n(C)c3)cc2)c1` [compound 206], the MIC with S. aureus ATCC 43300 (ATCC43300, 18 h, 37 °C) was greater than 100 µM; in [5], 6.25 µM (≈ 3.92 µg/mL). In the series with d(5′-CGCATATATGCG-3′), the “ΔTm, DNA melting temperature increase” value is 1 °C. The “hERG % displacement of [3H]-astemizole” value on hERG ion channel [6] amounted to 44%. In [3] (setting [7]), the IC50 stood at 2.4 ± 0.3 µM.

Regarding `COc1ccc(/C=C/c2ccc(C(=O)Nc3cc(C(=O)Nc4cc(C(=O)NCC[N+]5([O-])CCOCC5)n(C)c4)n(C)c3)cn2)cc1` [compound 207], the MIC in the series on S. aureus ATCC 43300 (ATCC43300, 18 h, 37 °C) was greater than 100 µM; in series [5], 12.5 µM (≈ 7.85 µg/mL). Besides, the “ΔTm, DNA melting temperature increase” value in the series with d(5′-CGCATATATGCG-3′) is 1 °C. Also, the “hERG % displacement of [3H]-astemizole” value on hERG ion channel [6] was 45%. Further, the IC50 in [3] (setting [7]) turned out to be 3.1 ± 1 µM.

These data come from paper PMC9569768, “Selective Anti-Leishmanial Strathclyde Minor Groove Binders Using an N-Oxide Tail-Group Modification” (International Journal of Molecular Sciences, 2022).
